US20240409585A1, “MACROCYCLIC IMMUNOMODULATORS” (priority 2021, published 2024)
Bridge positions count the residues as written; N and C are the ends. Square brackets hold non-standard residues; d marks the D form. Peptide text beside a SMILES is read from it. * marks the point of attachment. Phe(4-CONH2) = NC(=O)c1ccc(C[C@H](N)C(=O)O)cc1; Phe(4-COOH) = N[C@@H](Cc1ccc(C(=O)O)cc1)C(=O)O; Phe(4-CH2NH2) = NCc1ccc(C[C@H](N)C(=O)O)cc1; Bip = N[C@@H](Cc1ccc(-c2ccccc2)cc1)C(=O)O; Phe(3-Me) = Cc1cccc(C[C@H](N)C(=O)O)c1; Dopa = N[C@@H](Cc1ccc(O)c(O)c1)C(=O)O; Val(3-OH) = CC(C)(O)[C@H](N)C(=O)O; hArg = N=C(N)NCCCC[C@H](N)C(=O)O; 3Pal = N[C@@H](Cc1cccnc1)C(=O)O; 4Pal = N[C@@H](Cc1ccncc1)C(=O)O; 2Thi = N[C@@H](Cc1cccs1)C(=O)O; Cha = N[C@@H](CC1CCCCC1)C(=O)O; Cit = NC(=O)NCCC[C@H](N)C(=O)O; Carboxymethyl = O=C(O)C*; NMeA = CN[C@@H](C)C(=O)O; Orn = NCCC[C@H](N)C(=O)O; Dab = NCC[C@H](N)C(=O)O; Dap = NC[C@H](N)C(=O)O; Piv = CC(C)(C)C(=O)*

Target: T1, PE-labeled human PD-L1-Ig binding to Jurkat cell line over-expressing human PD-1 (Jurkat-PD-1) (Homo sapiens, UniProt Q15116)
T1 construct: expressed in transfected cells; host or cells: Jurkat
Assay: Jurkat-PD-1 Cell Binding High-Content Screening Assay (CBA): Method 1
Conditions: Jurkat-hPD-1 cells, PE-labeled PD-L1-Ig 20 nM final; read-out: Jurkat HPDL1 PD1 IC50 (uM) (Method 1)

T1 sequence (Q15116 25-288): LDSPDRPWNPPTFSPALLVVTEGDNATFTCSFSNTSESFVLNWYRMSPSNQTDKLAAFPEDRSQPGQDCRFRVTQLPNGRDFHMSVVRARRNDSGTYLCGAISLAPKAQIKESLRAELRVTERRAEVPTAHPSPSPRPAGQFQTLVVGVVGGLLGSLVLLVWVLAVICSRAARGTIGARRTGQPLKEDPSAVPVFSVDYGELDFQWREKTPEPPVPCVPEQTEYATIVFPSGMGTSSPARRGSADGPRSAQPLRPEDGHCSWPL

SMILES | IC50 [µM]
CC(C)C[C@@H]1NC(=O)[C@H](CCCN)NC(=O)[C@@H](CC(C)C)NC(=O)[C@H](C)N(C)C(=O)[C@H](CCCNC(=N)N)NC(=O)[C@H](Cc2ccc(-c3ccccc3)cc2)NC(=O)[C@H](C(C)C)NC(=O)[C@H](Cc2c[nH]c3ccccc23)NC(=O)[C@H](CC(=O)O)NC(=O)[C@H](Cc2ccc(O)cc2)NC(=O)[C@H](CC(N)=O)NC(=O)CSC[C@@H](C(=O)N[C@@H](CO)C(N)=O)NC(=O)[C@H]([C@@H](C)O)NC(=O)[C@H](C(C)C)NC1=O [Compound 1177] ({CH2CO}-NYDWV[Bip]R[NMeA][dL][Orn]LVTCS-NH2; thioether N-14) | 0.12
CC(C)C[C@@H]1NC(=O)[C@H](CCN)NC(=O)[C@@H](CC(C)C)NC(=O)[C@H](C)N(C)C(=O)[C@H](CCCNC(=N)N)NC(=O)[C@H](Cc2ccc(-c3ccccc3)cc2)NC(=O)[C@H](C(C)C)NC(=O)[C@H](Cc2c[nH]c3ccccc23)NC(=O)[C@H](CC(=O)O)NC(=O)[C@H](Cc2ccc(OCC(=O)O)cc2)NC(=O)[C@H](Cc2cnc[nH]2)NC(=O)CSC[C@@H](C(=O)N[C@@H](C)C(N)=O)NC(=O)[C@H]([C@@H](C)O)NC(=O)[C@H](C(C)C)NC1=O [Compound 1150] ({CH2CO}-HY(Carboxymethyl)DWV[Bip]R[NMeA][dL][Dab]LVTCA-NH2; thioether N-14) | 0.05
Cc1cccc(C[C@@H]2NC(=O)[C@H](CC(=O)O)NC(=O)[C@H](Cc3ccc(OCC(=O)O)cc3)NC(=O)[C@H](Cc3cccs3)NC(=O)CSC[C@@H](C(=O)N[C@@H](CCNC(=O)C(C)(C)C)C(N)=O)NC(=O)[C@H](Cc3cnc[nH]3)NC(=O)[C@H](C(C)(C)O)NC(=O)[C@H](CC3CCCCC3)NC(=O)[C@H](CCN)NC(=O)[C@@H](CC(C)C)NC(=O)[C@H](C)N(C)C(=O)[C@H](Cc3ccc(OCC(=O)O)cc3)NC(=O)[C@H](Cc3ccc(-c4ccccc4)cc3)NC(=O)[C@H](Cc3ccc(C(=O)O)cc3)NC2=O)c1 [Compound 2166] ({CH2CO}-[2Thi]Y(Carboxymethyl)D[Phe(3-Me)][Phe(4-COOH)][Bip]Y(Carboxymethyl)[NMeA][dL][Dab][Cha][Val(3-OH)]HC[Dab](Piv)-NH2; thioether N-14) | 0.02
CCC(C)[C@@H]1NC(=O)[C@H](Cc2ccc(-c3ccccc3)cc2)NC(=O)[C@H](C(C)C)NC(=O)[C@H](Cc2c[nH]c3ccccc23)NC(=O)[C@H](CC(=O)O)NC(=O)[C@H](Cc2ccc(C(=O)O)cc2)NC(=O)[C@H](Cc2ccc(OCC(=O)O)cc2)NC(=O)CSC[C@@H](C(=O)N[C@@H](CCC(=O)O)C(=O)N[C@H](C(N)=O)C(=O)O)NC(=O)[C@H](CO)NC(=O)[C@H](C(C)C)NC(=O)[C@H](CC2CCCCC2)NC(=O)[C@H](CC(N)=O)NC(=O)[C@@H](CC(C)C)NC(=O)[C@H](C)N(C)C1=O (stereo partly drawn) [Compound 2008] | 0.04
CC(C)C[C@@H]1NC(=O)[C@H](CCCNC(=N)N)NC(=O)[C@@H](Cc2ccccc2)NC(=O)[C@H](C)N(C)C(=O)[C@H](CCCNC(=N)N)NC(=O)[C@H](Cc2ccc(-c3ccccc3)cc2)NC(=O)[C@H](C(C)C)NC(=O)[C@H](Cc2c[nH]c3ccccc23)NC(=O)[C@H](CC(=O)O)NC(=O)[C@H](Cc2ccc(O)cc2)NC(=O)[C@H](CC(N)=O)NC(=O)CSC[C@@H](C(=O)N[C@@H](C)C(N)=O)NC(=O)[C@H](CO)NC(=O)[C@H](C(C)C)NC1=O [Compound 1042] ({CH2CO}-NYDWV[Bip]R[NMeA][dF]RLVSCA-NH2; thioether N-14) | 0.04
CC(C)C[C@@H]1NC(=O)[C@H](CCCNC(=N)N)NC(=O)[C@@H](CC(C)C)NC(=O)[C@H](C)N(C)C(=O)[C@H](CCCNC(=N)N)NC(=O)[C@H](Cc2ccc(-c3ccccc3)cc2)NC(=O)[C@H](C(C)C)NC(=O)[C@H](Cc2c[nH]c3ccccc23)NC(=O)[C@H](CC(=O)O)NC(=O)[C@H](Cc2cccnc2)NC(=O)[C@H](Cc2ccccc2)NC(=O)CSC[C@@H](C(=O)N[C@@H](C)C(N)=O)NC(=O)[C@H]([C@@H](C)O)NC(=O)[C@H](C(C)C)NC1=O [Compound 1101] ({CH2CO}-F[3Pal]DWV[Bip]R[NMeA][dL]RLVTCA-NH2; thioether N-14) | 0.29
CC(C)C[C@@H]1NC(=O)[C@H](Cc2c[nH]c3ccccc23)NC(=O)[C@H](CC(=O)O)NC(=O)[C@H](Cc2ccc(O)cc2)NC(=O)[C@H](CC(N)=O)NC(=O)CSC[C@@H](C(=O)N[C@@H](C)C(N)=O)NC(=O)[C@H]([C@@H](C)O)NC(=O)[C@H](C(C)C)NC(=O)[C@H](CC(C)C)NC(=O)[C@H](CCCNC(=N)N)NC(=O)[C@@H](CC(C)C)NC(=O)[C@H](C)N(C)C(=O)[C@H](CCCNC(=N)N)NC(=O)[C@H](Cc2ccc(-c3ccccc3)cc2)NC1=O [Compound 1215] ({CH2CO}-NYDWL[Bip]R[NMeA][dL]RLVTCA-NH2; thioether N-14) | 0.08
CC(C)C[C@@H]1NC(=O)[C@H](CCN)NC(=O)[C@@H](CC(C)C)NC(=O)[C@H](C)N(C)C(=O)[C@H](CCCNC(N)=O)NC(=O)[C@H](Cc2ccc(-c3ccccc3)cc2)NC(=O)[C@H](C(C)C)NC(=O)[C@H](Cc2c[nH]c3ccccc23)NC(=O)[C@H](CC(=O)O)NC(=O)[C@H](Cc2ccc(O)cc2)NC(=O)[C@H](CCCCNC(=N)N)NC(=O)CSC[C@@H](C(=O)N[C@@H](C)C(N)=O)NC(=O)[C@H]([C@@H](C)O)NC(=O)[C@H](C(C)C)NC1=O [Compound 1349] ({CH2CO}-[hArg]YDWV[Bip][Cit][NMeA][dL][Dab]LVTCA-NH2; thioether N-14) | 0.06
Cc1cccc(C[C@@H]2NC(=O)[C@H](CC(=O)O)NC(=O)[C@H](Cc3ccc(OCC(=O)O)cc3)NC(=O)[C@H](CN)NC(=O)CSC[C@@H](C(N)=O)NC(=O)[C@H](CCC(=O)O)NC(=O)[C@H](C(C)C)NC(=O)[C@H](CC3CCCCC3)NC(=O)[C@H](CCN)NC(=O)[C@@H](CC(C)C)NC(=O)[C@H](C)N(C)C(=O)[C@H](Cc3ccc(OCC(=O)O)cc3)NC(=O)[C@H](Cc3ccc(-c4ccccc4)cc3)NC(=O)[C@H](Cc3ccc(OCC(=O)O)cc3)NC2=O)c1 [Compound 1651] ({CH2CO}-[Dap]Y(Carboxymethyl)D[Phe(3-Me)]Y(Carboxymethyl)[Bip]Y(Carboxymethyl)[NMeA][dL][Dab][Cha]VEC-NH2; thioether N-14) | 0.1
CC(C)C[C@H]1NC(=O)[C@H](C)N(C)C(=O)[C@H](C(C)C)NC(=O)[C@H](Cc2ccc(-c3ccccc3)cc2)NC(=O)[C@H](C(C)C)NC(=O)[C@H](Cc2c[nH]c3ccccc23)NC(=O)[C@H](CC(=O)O)NC(=O)[C@H](Cc2ccncc2)NC(=O)[C@H](Cc2ccc(CN)cc2)NC(=O)CSC[C@@H](C(N)=O)NC(=O)[C@H](CO)NC(=O)[C@H](C(C)C)NC(=O)[C@H](CC2CCCCC2)NC(=O)[C@H](CC(N)=O)NC1=O [Compound 2242] ({CH2CO}-[Phe(4-CH2NH2)][4Pal]DWV[Bip]V[NMeA][dL]N[Cha]VSC-NH2; thioether N-14) | 0.03
Cc1cccc(C[C@@H]2NC(=O)[C@H](CC(=O)O)NC(=O)[C@H](Cc3ccc(OCC(=O)O)cc3)NC(=O)[C@H](CN)NC(=O)CSC[C@@H](C(=O)N[C@@H](CCN)C(N)=O)NC(=O)[C@H]([C@@H](C)O)NC(=O)[C@H](C(C)C)NC(=O)[C@H](CC3CCCCC3)NC(=O)[C@H](CCNC(=O)C(C)(C)C)NC(=O)[C@@H](CC(C)C)NC(=O)[C@H](C)N(C)C(=O)[C@H](Cc3ccc(OCC(=O)O)cc3)NC(=O)[C@H](Cc3ccc(-c4ccccc4)cc3)NC(=O)[C@H](Cc3ccc(OCC(=O)O)cc3)NC2=O)c1 [Compound 1864] ({CH2CO}-[Dap]Y(Carboxymethyl)D[Phe(3-Me)]Y(Carboxymethyl)[Bip]Y(Carboxymethyl)[NMeA][dL][Dab](Piv)[Cha]VTC[Dab]-NH2; thioether N-14) | 0.04
CC(C)C[C@@H]1NC(=O)[C@H](CCN)NC(=O)[C@@H](CC(C)C)NC(=O)[C@H](C)N(C)C(=O)[C@H](CCCNC(N)=O)NC(=O)[C@H](Cc2ccc(-c3ccccc3)cc2)NC(=O)[C@H](C(C)C)NC(=O)[C@H](Cc2c[nH]c3ccccc23)NC(=O)[C@H](CC(=O)O)NC(=O)[C@H](Cc2ccc(O)cc2)NC(=O)[C@H](CCN)NC(=O)CSC[C@@H](C(=O)N[C@@H](C)C(N)=O)NC(=O)[C@H]([C@@H](C)O)NC(=O)[C@H](C(C)C)NC1=O [Compound 1346] ({CH2CO}-[Dab]YDWV[Bip][Cit][NMeA][dL][Dab]LVTCA-NH2; thioether N-14) | 0.07
CCNC(=O)[C@H](CCN)NC(=O)[C@@H]1CSCC(=O)N[C@@H](Cc2ccc(C(N)=O)cc2)C(=O)N[C@@H](Cc2ccc(OCC(=O)O)cc2)C(=O)N[C@@H](CC(=O)O)C(=O)N[C@@H](Cc2cccc(C)c2)C(=O)N[C@@H](Cc2ccc(OCC(=O)O)cc2)C(=O)N[C@@H](Cc2ccc(-c3ccccc3)cc2)C(=O)N[C@@H](Cc2ccc(OCC(=O)O)cc2)C(=O)N(C)[C@@H](C)C(=O)N[C@H](CC(C)C)C(=O)N[C@@H](CCN)C(=O)N[C@@H](CC2CCCCC2)C(=O)N[C@@H](C(C)C)C(=O)N[C@@H]([C@@H](C)O)C(=O)N1 [Compound 1857] ({CH2CO}-[Phe(4-CONH2)]Y(Carboxymethyl)D[Phe(3-Me)]Y(Carboxymethyl)[Bip]Y(Carboxymethyl)[NMeA][dL][Dab][Cha]VTC[Dab]-NHEt; thioether N-14) | 0.01
CC(C)C[C@@H]1NC(=O)[C@H](Cc2c[nH]c3ccccc23)NC(=O)[C@H](CC(=O)O)NC(=O)[C@H](Cc2ccc(O)c(O)c2)NC(=O)[C@H](Cc2ccccc2)NC(=O)CSC[C@@H](C(=O)N[C@@H](C)C(N)=O)NC(=O)[C@H](CO)NC(=O)[C@H](C(C)C)NC(=O)[C@H](CC(C)C)NC(=O)[C@H](CC(N)=O)NC(=O)[C@@H](C)NC(=O)[C@H](C)N(C)C(=O)[C@H](C(C)C)NC(=O)[C@H](Cc2ccc(-c3ccccc3)cc2)NC1=O [Compound 1724] ({CH2CO}-F[Dopa]DWL[Bip]V[NMeA][dA]NLVSCA-NH2; thioether N-14) | 0.01
Cc1cccc(C[C@@H]2NC(=O)[C@H](CC(=O)O)NC(=O)[C@H](Cc3ccc(OCC(=O)O)cc3)NC(=O)[C@H](CCCNC(=N)N)NC(=O)CSC[C@@H](C(N)=O)NC(=O)[C@H]([C@@H](C)O)NC(=O)[C@H](C(C)C)NC(=O)[C@H](CC3CCCCC3)NC(=O)[C@H](CCN)NC(=O)[C@@H](CC(C)C)NC(=O)[C@H](C)N(C)C(=O)[C@H](CCCN)NC(=O)[C@H](Cc3ccc(-c4ccccc4)cc3)NC(=O)[C@H](Cc3ccc(O)cc3)NC2=O)c1 [Compound 1868] ({CH2CO}-RY(Carboxymethyl)D[Phe(3-Me)]Y[Bip][Orn][NMeA][dL][Dab][Cha]VTC-NH2; thioether N-14) | 0.17
